Laboratory results from ChEMBL document CHEMBL1145352, “Synthesis and cytotoxic activity of trisubstituted-1,3,5-triazines” (Bioorg Med Chem Lett, 2007).
In brackets after ≈: the same amount, converted by molar mass.

How the values were obtained:
[1] = system: Mycobacterium tuberculosis; assay: Antimycobacterial activity against Mycobacterium tuberculosis H37Rv relative to control; assay type: functional; design: concentration or dose not given beside the values
[2] = system: HL-60; assay: Photocytotoxicity against human HL60 cells irradiated with 1.25 J cm^-2 UVA dose after 72 hrs by MTT assay; assay type: functional; conditions: HL-60, light or radiation study
[3] = Inhibition of oxygen evolution rate in spinach chloroplasts; assay type: functional, Spinacia oleracea
[4] = system: Mycobacterium tuberculosis; assay: Antimycobacterial activity against Mycobacterium tuberculosis H37Rv; assay type: functional
[5] = system: Chlorella vulgaris; assay: Antialgal activity against Chlorella vulgaris assessed as inhibition of chlorophyll production; assay type: functional, organism-based
[6] = system: LoVo; assay: Photocytotoxicity against human LoVo cells irradiated with 2.5 J cm^-2 UVA dose after 72 hrs by MTT assay; assay type: functional; conditions: light or radiation study
[7] = system: LoVo; assay: Photocytotoxicity against human LoVo cells irradiated with 1.25 J cm^-2 UVA dose after 72 hrs by MTT assay; assay type: functional; conditions: light or radiation study
[8] = system: HL-60; assay: Cell cycle arrest in human HL60 cells irradiated with 2.5 J cm^-2 CUVA assessed as accumulation at S phase at 5 mM after 24 hrs; assay type: functional
[9] = system: HL-60; assay: Cell cycle arrest in human HL60 cells irradiated with 2.5 J cm^-2 CUVA assessed as accumulation at S phase at 5 mM after 48 hrs; assay type: functional
[10] = system: HL-60; assay: Cell cycle arrest in human HL60 cells irradiated with 2.5 J cm^-2 CUVA assessed as accumulation at G1 phase at 5 mM after 24 hrs; assay type: functional
[11] = system: HL-60; assay: Cell cycle arrest in human HL60 cells irradiated with 2.5 J cm^-2 CUVA assessed as accumulation at G2 phase at 5 mM after 48 hrs; assay type: functional
[12] = system: HL-60; assay: Cell cycle arrest in human HL60 cells irradiated with 2.5 J cm^-2 CUVA assessed as accumulation at S phase at 2.5 mM after 72 hrs; assay type: functional
[13] = system: HL-60; assay: Induction of apoptosis in human HL60 cells irradiated with 2.5 J cm^-2 CUVA assessed as appearance of sub G1 peak at 5 mM after 72 hrs; assay type: functional
[14] = system: HL-60; assay: Cell cycle arrest in human HL60 cells irradiated with 2.5 J cm^-2 CUVA assessed as accumulation at S phase at 5 mM after 72 hrs; assay type: functional
[15] = system: HL-60; assay: Cell cycle arrest in human HL60 cells irradiated with 2.5 J cm^-2 CUVA assessed as accumulation at G2 phase at 2.5 mM after 72 hrs; assay type: functional
[16] = system: HL-60; assay: Cell cycle arrest in human HL60 cells irradiated with 2.5 J cm^-2 CUVA assessed as accumulation at G1 phase at 2.5 mM after 24 hrs; assay type: functional
[17] = system: HL-60; assay: Induction of apoptosis in human HL60 cells irradiated with 2.5 J cm^-2 CUVA assessed as appearance of sub G1 peak at 2.5 mM after 48 hrs; assay type: functional
[18] = system: HL-60; assay: Cell cycle arrest in human HL60 cells irradiated with 2.5 J cm^-2 CUVA assessed as accumulation at G1 phase at 5 mM after 48 hrs; assay type: functional
[19] = system: HL-60; assay: Cell cycle arrest in human HL60 cells irradiated with 2.5 J cm^-2 CUVA assessed as accumulation at G1 phase at 5 mM after 72 hrs; assay type: functional
[20] = system: HL-60; assay: Cell cycle arrest in human HL60 cells irradiated with 2.5 J cm^-2 CUVA assessed as accumulation at S phase at 2.5 mM after 24 hrs; assay type: functional
[21] = system: HL-60; assay: Induction of apoptosis in human HL60 cells irradiated with 2.5 J cm^-2 CUVA assessed as appearance of sub G1 peak at 5 mM after 24 hrs; assay type: functional
[22] = system: HL-60; assay: Cell cycle arrest in human HL60 cells irradiated with 2.5 J cm^-2 CUVA assessed as accumulation at G2 phase at 5 mM after 72 hrs; assay type: functional
[23] = system: HL-60; assay: Cell cycle arrest in human HL60 cells irradiated with 2.5 J cm^-2 CUVA assessed as accumulation at G1 phase at 2.5 mM after 72 hrs; assay type: functional
[24] = system: HL-60; assay: Cell cycle arrest in human HL60 cells irradiated with 2.5 J cm^-2 CUVA assessed as accumulation at S phase at 2.5 mM after 48 hrs; assay type: functional
[25] = system: HL-60; assay: Cell cycle arrest in human HL60 cells irradiated with 2.5 J cm^-2 CUVA assessed as accumulation at G2 phase at 5 mM after 24 hrs; assay type: functional
[26] = system: HL-60; assay: Induction of apoptosis in human HL60 cells irradiated with 2.5 J cm^-2 CUVA assessed as appearance of sub G1 peak at 5 mM after 48 hrs; assay type: functional
[27] = system: HL-60; assay: Cell cycle arrest in human HL60 cells irradiated with 2.5 J cm^-2 CUVA assessed as accumulation at G2 phase at 2.5 mM after 48 hrs; assay type: functional
[28] = system: HL-60; assay: Cell cycle arrest in human HL60 cells irradiated with 2.5 J cm^-2 CUVA assessed as accumulation at G1 phase at 2.5 mM after 48 hrs; assay type: functional
[29] = system: HL-60; assay: Cell cycle arrest in human HL60 cells irradiated with 2.5 J cm^-2 CUVA assessed as accumulation at G2 phase at 2.5 mM after 24 hrs; assay type: functional
[30] = system: HL-60; assay: Induction of apoptosis in human HL60 cells irradiated with 2.5 J cm^-2 CUVA assessed as appearance of sub G1 peak at 2.5 mM after 72 hrs; assay type: functional
[31] = system: HL-60; assay: Induction of apoptosis in human HL60 cells irradiated with 2.5 J cm^-2 CUVA assessed as appearance of sub G1 peak at 2.5 mM after 24 hrs; assay type: functional

Compound `COc1ccc(Nc2nc(Nc3ccc(OC)cc3)nc(Nc3ccc(OC)cc3)n2)cc1` has an Inhibition [1] of 72%, a GI50 [2] of 3.4 mM and an IC50 [3] of 0.241 mmol/dm3. The MIC [4] was > 6.25 µg/mL and the IC50 [5] was 0.079 mmol/dm3.

`CN(C)C(=O)Nc1ccc(Cl)c(Cl)c1` [DCMU] showed an IC50 [3] of 0.0019 mmol/dm3 and an IC50 [5] of 0.0073 mmol/dm3.

With `CCN(CC)c1nc(N(CC)CC)nc(N(CC)CC)n1` the Inhibition [1] was 0%, the GI50 [6] was 12.5 mM and the GI50 [2] was > 10 mM. For the same compound, the IC50 [3] was 0.244 mmol/dm3, the MIC [4] was > 6.25 µg/mL and the IC50 [5] was 0.067 mmol/dm3. For the same compound, the GI50 [7] was > 20 mM.

With `Oc1nc(O)nc(O)n1` the Inhibition [1] was 39%, the GI50 [2] was 4.3 mM and the IC50 [3] was 0.081 mmol/dm3. For the same compound, the MIC [4] was > 6.25 µg/mL.

For `CC(=O)Nc1nc(NC(C)=O)nc(NC(C)=O)n1`, the Activity [8] was 54.3%, the Activity [9] was 38.6% and the Inhibition [1] was 11%. It also gave a GI50 [6] of 1.89 mM, an Activity [10] of 34.2% and a GI50 [2] of 6.8 mM. The Activity [11] was 11.7%, the Activity [12] was 43.8% and the Activity [13] was 46%. It also gave an Activity [14] of 37.1%, an Activity [15] of 12% and an Activity [16] of 29.3%. It also gave an IC50 [3] of 0.148 mmol/dm3, an Activity [17] of 27% and an Activity [18] of 50.3%. The Activity [19] was 57.3%, the MIC [4] was > 6.25 µg/mL and the Activity [20] was 58.4%. For the same compound, the Activity [21] was 21%, the Activity [22] was 6.9% and the Activity [23] was 45.2%. For the same compound, the Activity [24] was 45%, the Activity [25] was 11.1% and the IC50 [5] was 0.208 mmol/dm3. The GI50 [7] was 3.5 mM, the Activity [26] was 26% and the Activity [27] was 10.3%. It also gave an Activity [28] of 44.5%, an Activity [29] of 10.8% and an Activity [30] of 40.5%. For the same compound, the Activity [31] was 13.2%.

For `CO[C@H]1/C=C/O[C@@]2(C)Oc3c(C)c(O)c4c(O)c(c(/C=N/N5CCN(C)CC5)c(O)c4c3C2=O)NC(=O)/C(C)=C\C=C\[C@H](C)[C@H](O)[C@@H](C)[C@@H](O)[C@@H](C)[C@H](OC(C)=O)[C@@H]1C` [RIFAMPIN], the Inhibition [1] was 100% and the MIC [4] was 0.125 µg/mL (≈ 0.152 µM).

In the case of `CNc1nc(NC)nc(NC)n1`, the Inhibition [1] is reported as 24%, the GI50 [2] is reported as > 10 mM and the IC50 [3] is reported as 0.118 mmol/dm3. The MIC [4] was > 6.25 µg/mL and the IC50 [5] was 0.356 mmol/dm3.

In the case of `CN(C)c1nc(N(C)C)nc(N(C)C)n1` [ALTRETAMINE], the Inhibition [1] is reported as 28%, the GI50 [6] is reported as 10.3 mM and the GI50 [2] is reported as > 10 mM. The IC50 [3] was 0.486 mmol/dm3, the MIC [4] was > 6.25 µg/mL and the IC50 [5] was 0.125 mmol/dm3. It also gave a GI50 [7] of 17.2 mM.

In the case of `c1ccc(Nc2nc(Nc3ccccc3)nc(Nc3ccccc3)n2)cc1`, the Inhibition [1] is reported as 0%, the GI50 [2] is reported as > 10 mM and the IC50 [3] is reported as 1.072 mmol/dm3. For the same compound, the MIC [4] was > 6.25 µg/mL.
